Experimental data as given in ChEMBL document CHEMBL1131667, “4-Phenylthiazole derivatives inhibit IL-6 secretion in osteoblastic cells and suppress bone weight loss in ovariectomized mice” (Bioorg Med Chem Lett, 1999).
≈ marks a conversion by molar mass, not a printed value.

Experiments:
[1] = Inhibition the IL-6 secretion stimulated at a concentration of 10 ng/ml in osteoblastic MC3T3-E 1 cells.; type: functional; settings: Mus musculus, MC3T3-E1
Mus musculus [2] = assay: Effect on femoral weight loss in ovariectomized mice at a dose of 0.4 mg/kg/day, ip; type: functional, organism-based
Mus musculus [3] = assay: Effect on femoral weight loss in ovariectomized mice at a dose of 2.0mg/kg/day, ip; type: functional, organism-based

Row | IC50 [1] [µg/mL] | SMILES | Recovery (Mus musculus [2]) [%] | Recovery (Mus musculus [3]) [%]
1 | 40 (≈ 152 µM) | CCOC(=O)c1sc(NC)nc1-c1ccccc1 |  | 
2 | > 100 | CCc1sc(N)nc1-c1ccccc1 |  | 
3 | 7 (≈ 31.8 µM) | COc1ccc(-c2nc(N)sc2C)cc1 |  | 
4 | 40 (≈ 153 µM) | CCCNC(=O)c1sc(N)nc1-c1ccccc1 |  | 
5 | 1 (≈ 4.85 µM) | Cc1sc(N)nc1-c1ccc(O)cc1 | 13.9 | 35.5
6 | 24 (≈ 117 µM) | Cc1ccc(-c2nc(N)sc2C)cc1 |  | 
7 | 3 (≈ 11.6 µM) | Cc1sc(N)nc1-c1ccc(C(F)(F)F)cc1 |  | 
8 | 40 (≈ 162 µM) | CCOC(=O)c1sc(C)nc1-c1ccccc1 |  | 
9 | 10 (≈ 44.5 µM) | Cc1sc(N)nc1-c1ccc(Cl)cc1 | 22.8 | 57.8
10 | 6 (≈ 21.2 µM) | CCOC(=O)c1sc(N)nc1-c1ccc(Cl)cc1 |  | 
11 | 35 (≈ 135 µM) | Cc1sc(N)nc1-c1ccc(Cl)c(Cl)c1 |  | 
12 | > 100 | Nc1nc(-c2ccccc2)c(C(=O)O)s1 |  | 
13 | 10 (≈ 52.6 µM) | Cc1sc(N)nc1-c1ccccc1 |  | 
14 | 50 (≈ 223 µM) | Cc1sc(N)nc1-c1ccccc1Cl |  | 
15 | 40 (≈ 195 µM) | CNc1sc(N)nc1-c1ccccc1 |  | 
16 | 30 (≈ 129 µM) | CCOC(=O)c1scnc1-c1ccccc1 |  | 
17 | > 100 | CCOC(=O)c1sc(NC=O)nc1-c1ccccc1 |  | 
18 | 90 (≈ 290 µM) | CCOC(=O)c1sc(-c2ccncc2)nc1-c1ccccc1 |  | 
19 | 6 (≈ 24.2 µM) | CCOC(=O)c1sc(N)nc1-c1ccccc1 |  | 
20 | 2.5 (≈ 11.1 µM) | Cc1sc(N)nc1-c1cccc(Cl)c1 |  | 
21 | 60 (≈ 340 µM) | Nc1nc(-c2ccccc2)cs1 |  | 
22 | 20 (≈ 78.5 µM) | Nc1nc(-c2ccc(Cl)cc2)c(C(=O)O)s1 | 7.1 | 8.6
23 | 8 (≈ 30.9 µM) | Cc1sc(N)nc1-c1ccc(Cl)cc1Cl |  | 
24 | 27 (≈ 130 µM) | Cc1sc(N)nc1-c1ccc(F)cc1 |  | 
25 | 39 (≈ 146 µM) | Cc1sc(N)nc1-c1ccc(-c2ccccc2)cc1 |  | 
